Reference: US20170135378A1, “COMPOSITION AND USE THEREOF” (DUPONT NUTRITION BIOSCIENCES APS, priority 2014, published 2017)

Tests used:
[1] = Release testing of betaine leaching from shrimp feed pellets in artificial seawater; format: physicochemical
Experimental: An aquafeed comprising the composition of the invention (or the composition itself) is placed in a rotating basket and immersed in 500 ml of artificial seawater (547.6 mM NaCl, 56.8 mM MgSO4.7H2O, 2.4 mM NaHCO3, adjusted to pH 8,2 with 1M NaOH), and held at 30° C. Aliquots of sample are withdrawn at selected time-points (1, 3, 5, 10, 15, 30, 45, 60 and 90 minutes). The volume of dissolution media is held constant through the re-addition of aliquots (30° C.) of fresh media to compensate. The aliquots are analysed by a suitable analytical technique (e.g. HPLC) in order to determine the concentration of the hydro-soluble component in the dissolution media.
An aquafeed sample (30 g) was placed in a rotating basket and immersed in 500 ml of artificial seawater (pH 8,2), held at 30° C. 5 ml aliquots of sample were withdrawn at selected time-points (1, 3, 5, 10, 15, 30, 45, 60 and 90 minutes). The volume of dissolution media was held constant (500 ml) through the re-addition of 5 ml aliquots of fresh media (30° C.). These samples were filtered on […], frozen and analysed by HPLC in Advanced Analysis.
Release curves (see FIGS. 1 to 3) show the amount of betaine leached as a percentage of weight of available net betaine (% w/w).

[2] = pure form; water and lower alcohols; cited from earlier work

In the case of `C[N+](C)(C)CC(=O)[O-]` [Betafin BT, trimethylglycine], the “proportion of available betaine leached over 90 minutes” value ([1]; pellets with increased betaine content (c. 5 and 10 kg/T, FIGS. 2 and 3), artificial seawater pH 8,2, 30° C., 90 minutes) is reported as no more than 40%, the “leach profile of pellets (comparison in words)” value ([1]; shrimp feed pellets c. 2, 5 and 10 kg betaine/T, artificial seawater, 30° C., up to 90 minutes) is reported as “fastest and most extensive leaching” and the “available betaine dissolved after 90 minutes” value ([1]; shrimp feed pellets prepared with c. 2 kg betaine/T, artificial seawater pH 8,2, 30° C., 90 minutes, FIG. 1) is reported as no more than 60%. The “solubility (in words)” value [2] was “readily soluble in water and lower alcohols”.
